Data set [1] deals with MDA-MB-231 subcutaneous tumor. Briefly: In vivo FAP targeted CAR T-cell therapy. On the set-up: species or system mice. The procedure: In vivo FAP targeted CAR T-cell therapy: MDA-MB-231 subcutaneous tumor was developed in female NSG mice by injecting 5 million cancer cells. Once the tumor volume reached ˜100 mms the mice were randomized into three different groups and treatment was initiated. Mice in all the groups were administered with 15 million CAR T-cells which has an scFv domain that binds specifically and tightly with fluorescein. 2 h after administration of the CAR T-cells mice in all the groups were given the first dose of the respective test agents. […] During therapy, mice in different groups were administered with the respective test agents intravenously on every other day. As a measure of gross toxicity mice were also weighed at every dosing.

The test system of data set [2] is FaDu, HT29, MDA-MB231 and KB cancer cells. Nature of the data set: Confocal microscopy, uptake of JFL-L1-FM by cancer cells. Format: cell-based. Particulars: 100 nM, 1 h incubation at 37° C. As to the method:
Confocal Microscopy. FaDu, HT29, MDA-MB231 and KB cancer cells (30,000) were plated on 4 well confocal plate. The cells were incubated with […] JFL-L1-FM and incubated for 1 h. The unbound fluorescence was removed by washing the cells three times with the medium. The cell bound fluorescence was observed by using Olympus confocal microscopy.
In Vitro Binding Affinity and Confocal Imaging. The cancer cells FaDU, HT29, MDA-MB231 and KB were investigated for the expression of FAP. For this purpose, the cancer cells were seeded on a confocal well plate and incubated with 100 nM of the FAP targeted FM conjugate (JFL-L1-FM) After 1 h incubation at 37° C. the cells were washed to remove any excess of the […] under confocal microscopy to investigate any uptake of the dye, as shown in FIG. 11. […] This implied absence of FAP on these cancer cells.

For data set [3], the system named is FaDu, HT29, MDA-MB231 or KB tumor bearing mice. Nature of the data set: In vivo fluorescence imaging and biodistribution in tumor xenografts. Particulars: i.v., 2 h post injection; harvested organs. As to the method: In Vivo Fluorescence Imaging and Biodistribution. For the development of subcutaneous tumor xenografts, MDA-MB231, OVCAR-3 and HEC-1B 5×10^6 cells in 0.2 ml sterile PBS were injected subcutaneously in the right hind flank of the female nu/nu mice. Tumor imaging was initiated once the tumor volume reached between 200 mm^3 and 300 mm^3. Each tumor-bearing mouse was intravenously injected (via tail vein) with 10 nanomoles of fluorescence dye conjugate either in the presence or absence of a 100-fold excess of the unlabeled conjugate. Animals were euthanized two hours post injection using CO2 and the images were acquired using Caliper IVIS Luminal II. After performing the whole body image, the organs of interest were harvested and imaged to inspect the accumulation of the fluorescence in these organs. The image acquisition parameters were as follows: i) lamp level-high, ii) excitation-745 nm, iii) emission-ICG, iv) binning (M) 4M, (v) f-stop-4, (vi) FOV-12.5, (vii) acquisition time, 5 s.
In Vivo Fluorescence Imaging. To investigate the ability of JFL-L1-S0456 to accumulate in vivo mice were implanted with FaDu (n=5), HT29 (n=5), MDA-MB231(n=5) or KB (n=5) cells. These tumor bearing mice were intravenously injected with the NIR dye conjugate alone or co-injected with excess of the FAP targeting ligand JFL. […]

Where [4] appears, read: 10 nmoles i.v. every other day with 15 million anti-fluorescein CAR T-cells.

Experimental findings from US11872291B2, “Fibroblast activation protein (FAP)-targeted imaging and therapy” (priority 2016, dated 2024) are described below.

Structures are written as SMILES.

Consider `C[C@@H](NC(=O)c1ccnc(CNC(=O)CCC(=O)NC(CSC2CC(=O)N(c3ccc(-c4c5ccc(=O)cc-5oc5cc(O)ccc45)c(C(=O)O)c3)C2=O)C(=O)O)c1)C(=O)N1CC(F)(F)C[C@H]1C#N` (stereo partly drawn) [JFL-L1-FM], for which, in data set [1] (setting [4]), the “tumor growth rate after 1 week of treatment” value is “slight separation in the tumor growth rate was observed” and the “tumor volume at the beginning of the study” value is given as “did not display any reduction in tumor volume”. For the same compound, the “tumor growth rate, competition group” value in data set [1] (10 nmoles plus 100-fold excess of JFL, with CAR T-cells) is recorded as “did not show any difference in the tumor growth rate”. In addition, the “weight loss (gross toxicity)” value in data set [1] (all arms of the study) is given as “No weight loss was observed”. In addition, the “uptake of dye conjugate observed under confocal microscopy” value in data set [2] is recorded as “no uptake of dye conjugate was observed”.
For the compound `C[C@@H](NC(=O)c1ccnc(CNC(=O)CCC(=O)N[C@@H](CSC2CC(=O)N(CCNC(=O)CCc3ccc(OC4=C(/C=C/C5=[N+](CCCCS(=O)(=O)O)c6ccc(S(=O)(=O)[O-])cc6C5(C)C)CCC/C4=C\C=C4\N(CCCCS(=O)(=O)O)c5ccc(S(=O)(=O)O)cc5C4(C)C)cc3)C2=O)C(=O)O)c1)C(=O)N1CC(F)(F)C[C@H]1C#N` (stereo partly drawn) [JFL-L1-S0456], the “uptake of the dye conjugate in the liver and kidney” value in data set [3] was “minimal or no uptake”.
